Experimental data taken from patent US12144792B2, “Therapeutic agents for neurodegenerative diseases” (priority 2016, dated 2024).

What was measured:
[1] = tested on: Aspartylglucosaminuria patient fibroblasts; assay: Lysosomal volume via LysoTracker; format: cell-based, human; settings: 1 mM, 6 days, vs untreated
[2] = tested on: Hexb^−/− mouse (Sandhoff disease model); assay: Lifespan of Sandhoff mouse; format: in vivo; settings: 0.1 g/kg from 3 weeks of age, p<0.05 vs untreated
Method: This study made use of a mouse model of Sandhoff disease, the Hexb^−/− mouse, as described in Jeyakumar et al. (Jeyakumar, M. et al. (1999) Proc. Natl. Acad. Sci. USA 96: 6388-6393).
In FIG. 7A, acetyl-leucine-treated mice were treated with 0.1 g/kg acetyl-leucine from 3 weeks of age. The asterisks (*) indicates a p-value of <0.05 vs untreated Sandhoff mice. Data is average of n=6 mice per group. Without treatment, the median survival time of Sandhoff mice was 112 days. Treatment with acetyl-leucine (0.1 g/kg body weight since 3 weeks of age) increased the median lifespan to 120 days.

[3] = tested on: patient with oligosymptomatic MSA-C; assay: Gait analysis; format: in vivo, human; settings: Ex. 8 Patient 3, MSA-C; 3 then 5 gram per day; after one month
Method: After one month of treatment, a further examination was carried out.
Treatment was again suspended and the patient was evaluated three weeks later.

[4] = tested on: patients with ataxia with oculomotor apraxia type 4; assay: Case study, report of the patients'; format: in vivo, human; settings: Ex. 18, youngest sibling, AOA4; reported by parent
Source text: In this case study, four patients (male siblings) suffered from, and were later diagnosed with, ataxia with oculomotor apraxia type 4. The older three siblings […], at the time of disease onset. […] The older siblings began treatment with acetyl-leucine […], respectively, and have been on the treatment for approximately four years. No long-term clinical data is available for these three patients.
The youngest sibling was […] at the time of onset. […] No long-term clinical data is available for the youngest sibling.

NPC patients = assay: Clinical severity score (CSS) and annual severity increment score (ASIS); format: in vivo, human; settings: ten NPC patients, 4.5 g/day
Source text: An NPC patient's severity may be quantified by assigning a clinical severity score (CSS), which assesses various parameters of the disease and gives each parameter a score out of 5 (higher score=greater severity). See Yanjanin et al., “Linear Clinical Progression, Independent of Age of Onset, in Niemann-Pick Disease, Type C,” Am J Med Genet Part B 153B:132-140. In an untreated patient, one can typically predict how the CSS will change over time in an individual, as disease progression appears to be linear. For example, if Patient A moves from a CSS of 8 to a CSS of 12 between month 0 and month 12, it can be predicted that by month 36, the patient will have a CSS of 20. The annual severity increment score (ASIS) quantities the annual rate of change in the CSS, calculated by dividing the CSS of a patient by the patient's age. […]
Ten NPC patients were administered acetyl-leucine at 4.5 g/day over long durations. A CSS was determined at baseline, and at various time points, for eye movement, ambulation, speech, swallow, fine motor skills, cognition, memory, and seizures. An overall CSS was calculated at baseline and at each such time point by adding the individual CSS values for each parameter (eye movement, ambulation, etc.).
The ASIS at baseline and each time point was calculated using each patient's CSS and age at the time of assessment. […]

[5] = tested on: amyloid precursor protein C-terminal fragments (APP-CTFs); assay: APP-CTF levels relative to total APP in the cerebellum; format: in vivo, mouse; settings: NPC1−/− mice, 0.1 g/kg body weight daily from 3 weeks of age; sacrificed at 8 weeks
Method: The Niemann-Pick Disease Type C (NPC) mouse model shares a number of pathological features with Alzheimer's disease (AD) as described herein. […] Mice were sacrificed at 8 weeks of age. Levels of amyloid precursor protein C-terminal fragments (APP-CTFs) were evaluated relative to total amyloid precursor protein (APP) levels in the cerebellum for wild type, untreated wild type NPC1^−/− mice, and AL-treated wild type NPC1^−/− mice. Levels of microtubule-associated protein 1A/1B-light chain 3-phosphatidylethanolamine conjugate (LC3-II) were also evaluated relative to levels of tubulin loading control for wild type, untreated wild type NPC1^−/− mice, and AL-treated wild type NPC1^−/− mice.

[6] = tested on: patients with cerebellar ataxia; settings: cited from earlier work

CC(=O)NC(CC(C)C)C(=O)O (racemic) [acetyl-DL-leucine]
LysoTracker fluorescence (lysosomal volume) [1]: trend in reducing LysoTracker fluorescence
lifespan [2]: statistically significant increase in the lifespan
gait analysis, summary [3]: improvement of gait speed, and reductions of track width and gait fluctuations
fine motor skills and speech compared to older siblings [4]: improved fine motor skills and improved speech
change of ASIS relative to baseline (NPC patients): all ten patients showed a reduction in ASIS
change of overall CSS over the course of the experiment (NPC patients): none of the ten patients showed an overall increase in CSS
APP-CTF levels relative to total APP in the cerebellum [5]: lowering of APP-CTFs
benefit in cerebellar ataxia ([6]; another case series (Pelz et al. 2015)): did not find benefit
cerebellar ataxia symptoms ([6]; case series with cerebellar patients (Strupp et al. 2013)): symptomatic improvement of cerebellar ataxia
temporal gait variability ([6]; quantitative gait analysis (Schniepp et al. 2015)): improved temporal gait variability
